Measurements taken from US8106023B2, “1,4-benzothiepin-1, 1-dioxide derivatives with improved properties method for producing the same, drugs containing said compounds and the use thereof” (Sanofi-Aventis Deutschland GmbH, priority 2006, dated 2012).

Target: T1, human IBAT (Homo sapiens, UniProt Q12908)
T1 construct: Bases 599 to 1645 correspond to the complete coding region of human IBAT; expressed in transfected cells; pcDNA1 vector
T1 sequence (Q12908 1-348): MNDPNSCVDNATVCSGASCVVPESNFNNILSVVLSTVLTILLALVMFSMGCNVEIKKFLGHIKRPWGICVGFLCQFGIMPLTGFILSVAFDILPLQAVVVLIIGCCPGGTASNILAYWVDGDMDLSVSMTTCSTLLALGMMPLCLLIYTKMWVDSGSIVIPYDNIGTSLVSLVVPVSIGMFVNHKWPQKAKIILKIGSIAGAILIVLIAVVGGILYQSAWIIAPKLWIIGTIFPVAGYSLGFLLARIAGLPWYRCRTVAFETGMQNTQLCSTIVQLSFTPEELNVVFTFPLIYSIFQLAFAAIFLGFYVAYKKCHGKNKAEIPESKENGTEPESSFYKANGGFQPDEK
Experiment: in vitro IBAT inhibition assay: IBAT-dependent uptake of [3H]-taurocholic acid into CHO-hIBAT cells
Assay type: cell-based
Details: 10 μM taurocholic acid, 60 min at room temperature, read-out: IC-50 (human IBAT)
Procedure: The cell clone with the highest uptake activity for [^3H]-TCA, referred to hereinafter as CHO-hIBAT, was selected for the further assays and further cultured in the presence of 400 μg/ml Geneticin.
3. Measurement of the Inhibitory Effect of the Compound of the Invention on the IBAT-Dependent Uptake of Taurocholic Acid into Cells
CHO-hIBAT cells were seeded in a concentration of 40 000 cells per well in poly-D-lysine-coated 96-well plates in cell culture medium and cultured for 24 h. […] Finally, 100 μl of scintillation fluid were added to each well, and the radioactivity taken up into the cells was determined in a MicroBeta Scintillation Microplate Reader from Wallac.
The half-maximum inhibitory effect of the test compound (IC50 value, inhibitory concentration 50) was determined in the following way: • 1. […] This is the measurement in the absence of substance, measured in sodium-containing transport assay buffer. • 2. […] This is the measurement in the absence of substance, measured in sodium-free transport assay buffer. • 3. […]

CCCC[C@]1(CC)CS(=O)(=O)c2ccc(N(C)C)cc2[C@@H](c2cccc(NC(=O)N[C@@H]3O[C@H](CO)[C@@H](O)[C@H](O)[C@H]3O)c2)[C@H]1O [Example 1]
IC50: 2.5 nM

CCCCC1(CCCC)CS(=O)(=O)c2ccc(N(C)C)cc2[C@@H](c2cccc(NC(=O)N[C@@H]3O[C@H](CO)[C@@H](O)[C@H](O)[C@H]3O)c2)[C@H]1O [Example 2]
IC50: 6 nM
